Assay results from patent US6946125B2, “Methods of treating West Nile virus infection” (The New York Hospital Medical Center of Queens, priority 2000, dated 2005).

What was measured:
[1] = tested on: green monkey kidney cells; assay: Cytotoxic effect of ribavirin in cell culture; type: cell-based
Experimental: (§1) In vitro: Studies have been conducted utilized a bovine kidney cell monolayer infected with a strain of WNV isolated from mosquitoes and birds in Connecticut. Cytotoxicity was assayed by measuring the decrease in release of lactate dehydrogenase from infected cells, as compared with uninfected controls.

[2] = after 600 mg given every 6 hours; cited from earlier work
mice [3] = settings: cited from earlier work
[4] = cited from earlier work
mice [5] = assay: Mutagenicity of ribavirin in mice; settings: from mice
West Nile virus (WNV) = assay: Suppression of West Nile virus in Vero cell culture, colorimetric assay of cellular lactic dehydrogenase (O.D. 490); settings: for Mean O.D. 490 value: Vero cells
Experimental: The vertical axis represents a colorimetric assay of cellular lactic dehydrogenase which is directly proportional to cell viability and proliferation.
as §1

NC(=O)c1ncn([C@@H]2O[C@H](CO)[C@@H](O)[C@H]2O)n1 [Ribavirin, 1-β-D-ribofuranosyl-1H-1,2,4-triazole-3-carboxamide, reference compound]
concentration at which a cytotoxic effect occurred [1]: 600 to 1000 µM | concentration in human serum [2]: 1000 ng/mL | dose known to be mutagenic (mice [3]): 20 to 200 mg/kg | dose at which inhibition of erythrocyte release from bone marrow occurs ([4]; high doses): 30 mg/kg | reduction from baseline hematocrit ([4]; human, in vivo): ≤ 20% | reduction in baseline hemoglobin ([4]; human, in vivo): 10-12% | toxicity (in words) ([4]; human, in vivo): hemolysis | Bioavailability ([4]; patients with renal dysfunction): increased | teratogenicity ([4]; should not be given during, or within 6 months of pregnancy): teratogenic | estimated human equivalent of mutagenic dose (mice [5]): 1.67 to 16.7 mg/kg | Mean O.D. 490 value (West Nile virus (WNV); Ribavirin 0.2 uM applied 2 hours prior to infection of cells with WNV): 0.72c | Mean O.D. 490 value (West Nile virus (WNV); Ribavirin 0.3 uM applied 2 hours prior to infection of cells with WNV): 1.11a | Mean O.D. 490 value (West Nile virus (WNV); Ribavirin 0.4 uM applied 2 hours prior to infection of cells with WNV): 1.24b | Mean O.D. 490 value (West Nile virus (WNV); Ribavirin 0.5 uM applied 2 hours prior to infection of cells with WNV): 1.24b | Mean O.D. 490 value (West Nile virus (WNV); Ribavirin 0.6 uM applied 2 hours prior to infection of cells with WNV): 1.06a | concentration protective or prophylactic against infection (West Nile virus (WNV); WNV infection of bovine kidney cells in vitro): 400 µM | concentration that suppressed viral replication (West Nile virus (WNV); applied after infection): 500 µM | activity in vitro against WNV infection (West Nile virus (WNV); bovine kidney cells): active | protective concentration expressed as mass concentration (West Nile virus (WNV); equivalent of 400 uM): approximately 100 ug/ml
